Molecules are shown by their SMILES.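 Protocol summary: plate cells (96-well), add compound at 5 concentrations, incubate 48 h, interpolate endpoints linearly. At the GI50, growth is halved.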 Activity calls are given as the source filed them. No stated cut-off is given here; in the data, active = GI50 up to about 1.1 µM and inactive = higher.

Here are results for eleven molecules from ChEMBL document CHEMBL1201862, “PubChem BioAssay data set” (2004).

Common to all, as to experiment: inhibition of tumour cell growth, NCI panel, 48 h
Assay [1] concerns ACHN.
The test system of assay [2] is CAKI-1.
Assay [3] relates to COLO 205.
The test system of assay [4] is EKVX.
Assay [5] relates to HCT-15.
The subject of assay [6] is K562.
For assay [7], the system named is LOX IMVI.
The test system of assay [8] is MCF7.
The subject of assay [9] is MDA-N.
Assay [10] concerns MOLT-4.
For assay [11], the system named is OVCAR-5.
Assay [12] concerns RPMI-8226.
Assay [13] deals with SF-295.
The test system of assay [14] is SF-539.
Assay [15] relates to SK-OV-3.
Assay [16] concerns TK-10.
The test system of assay [17] is UACC-257.
In assay [18] the test system is UACC-62.

For the molecule `Fc1ccc(C(OCCN2CC3CC2CN3CCCc2ccccc2)c2ccc(F)cc2)cc1` (stereo not drawn), the GI50 is 11.5 µM (inactive) in assay [1]; 10.1 µM (inactive) in assay [2]; 1.68 µM (inactive) in assay [3]; 6.01 µM (inactive) in assay [4]; 4.63 µM in [5]; 3.11 µM (inactive) in assay [6]. Also, the GI50 was 5.87 µM (inactive) in assay [7]; 6.08 µM (inactive) in assay [8]; 6.27 µM (inactive) in [9]; 3.61 µM (inactive) in [10]; 11.3 µM (inactive) in assay [11]; 2.88 µM (inactive) in [12]. For the same molecule, the GI50 was 6.19 µM (inactive) in assay [13]; 2.37 µM (inactive) in assay [14]; 15 µM (inactive) in [15]; 11.2 µM (inactive) in assay [16]; 3.69 µM (inactive) in assay [17]; 11.1 µM (inactive) in assay [18].
As for `COC(=O)C1(Cc2ccccc2)Cc2ccccc2C1O` (stereo not drawn), the GI50 in [1] is > 100 µM (inactive); in assay [2] it was > 100 µM (inactive); in [3], > 100 µM (inactive); in assay [4], 65 µM (inactive); in assay [5] it was above 100 µM; in [6] it was > 100 µM (inactive). Besides, the GI50 in assay [7] was > 100 µM (inactive); in assay [8], > 100 µM (inactive); in assay [9], > 100 µM (inactive); in assay [10], 39.4 µM (inactive); in assay [11] it was > 100 µM (inactive); in [12], > 100 µM (inactive). For the same molecule, the GI50 in [13] was > 100 µM (inactive); in [14] it was > 100 µM (inactive); in [15] it was > 100 µM (inactive); in [16], 95.9 µM (inactive); in assay [17], > 100 µM (inactive); in assay [18], > 100 µM (inactive).
With `CC(C)=CCOc1cc(NC(=S)c2ccsc2C)ccc1Cl`, the GI50 in [1] is 16.7 µM (inactive); in assay [2], > 100 µM (inactive); in assay [3], 37.3 µM (inactive); in [4] it was 56.8 µM (inactive); in assay [5], above 100 µM; in [6], 7.48 µM (inactive). Besides, the GI50 in [7] is 30.7 µM (inactive); in [8] it was 15.4 µM (inactive); in assay [9], > 100 µM (inactive); in [10], 20.2 µM (inactive); in assay [11], 86.7 µM (inactive); in assay [12], 15.7 µM (inactive). The GI50 in assay [13] was 36 µM (inactive); in assay [14], 55.1 µM (inactive); in assay [15], 24.5 µM (inactive); in [16] it was 93.5 µM (inactive); in assay [17], 88.1 µM (inactive); in [18] it was 15.6 µM (inactive).
For the molecule `COc1nc2ncc([C@@H](O)[C@H](O)CO)nc2c(=O)n1C`, the GI50 in [1] was > 100 µM (inactive); in assay [2], > 100 µM (inactive); in [3], > 100 µM (inactive); in assay [4], > 100 µM (inactive); in assay [5], above 100 µM; in assay [6], > 100 µM (inactive). For the same molecule, the GI50 in assay [7], in assay [8], in [9], in assay [10], in [11] and in assay [12] was > 100 µM (inactive) throughout. In addition, the GI50 in assay [13], in [14], in [15], in assay [16], in assay [17] and in [18] was > 100 µM (inactive) in each case.
For `O=C(/C=C/c1ccccc1)CCN1CCCCC1`, the GI50 in [1] was 84.7 µM (inactive); in assay [2] it was 87.9 µM (inactive); in assay [3], 18 µM (inactive); in [4], > 100 µM (inactive); in assay [5] it was 22.6 µM; in [6], 40.1 µM (inactive). Further, the GI50 was 17.5 µM (inactive) in [7]; 27.4 µM (inactive) in [8]; 24.9 µM (inactive) in assay [9]; 24.1 µM (inactive) in assay [10]; > 100 µM (inactive) in assay [11]; 14.7 µM (inactive) in assay [12]. For the same molecule, the GI50 is 99.5 µM (inactive) in assay [13]; 17.8 µM (inactive) in [14]; 75 µM (inactive) in assay [15]; 51.3 µM (inactive) in [16]; 37.4 µM (inactive) in assay [17]; 55.2 µM (inactive) in assay [18].
In the case of `CCCC(=O)OCC(COC(=O)CCC)OC(=O)CCC` [TRIBUTYRIN], the GI50 is 96.2 µM (inactive) in assay [1]; 49.1 µM (inactive) in assay [2]; 55.6 µM (inactive) in [3]; > 100 µM (inactive) in assay [4]; above 100 µM in [5]; 64.7 µM (inactive) in assay [6]. Moreover, the GI50 in assay [7] is 82 µM (inactive); in assay [8] it was > 100 µM (inactive); in assay [9], 65.2 µM (inactive); in assay [10], 73.5 µM (inactive); in [11], 57.3 µM (inactive); in [12], 17.1 µM (inactive). The GI50 in assay [13] is > 100 µM (inactive); in assay [14], 62.8 µM (inactive); in assay [15], 61.2 µM (inactive); in assay [16] it was 27.3 µM (inactive); in assay [17] it was 42.2 µM (inactive); in assay [18] it was 58.3 µM (inactive).
Take `CC(C)(C)OC(=O)NCCNCCNc1ccccc1`: the GI50 in [1] is > 100 µM (inactive); in [2], > 100 µM (inactive); in assay [3], > 100 µM (inactive); in [4] it was > 100 µM (inactive); in assay [5] it was above 100 µM; in assay [6], > 100 µM (inactive). Further, the GI50 in assay [7] was > 100 µM (inactive); in [8], > 100 µM (inactive); in assay [9], 97.5 µM (inactive); in assay [10], > 100 µM (inactive); in [11] it was > 100 µM (inactive); in assay [12], > 100 µM (inactive). Also, the GI50 in [13], in [14], in assay [15], in assay [16], in assay [17] and in assay [18] was > 100 µM (inactive) throughout.
Take `CC(C)(C)OC(=O)NNCC(O)COc1ccccc1` (stereo not drawn): the GI50 in assay [1] was > 100 µM (inactive); in [2] it was > 100 µM (inactive); in [3], > 100 µM (inactive); in assay [4] it was > 100 µM (inactive); in assay [5], above 100 µM; in assay [6], > 100 µM (inactive). The GI50 in assay [7], in assay [8], in [9], in assay [10], in assay [11] and in assay [12] was > 100 µM (inactive) each time. In addition, the GI50 in assay [13], in [14], in assay [15], in assay [16], in [17] and in assay [18] was > 100 µM (inactive) each time.
Take `O=C1CC(CC(=O)c2ccc(Br)cc2)C(O)=C1C(=O)c1ccc(Br)cc1` (stereo not drawn): the GI50 was > 100 µM (inactive) in assay [1]; > 100 µM (inactive) in assay [2]; > 100 µM (inactive) in [3]; > 100 µM (inactive) in assay [4]; above 100 µM in assay [5]; 44.9 µM (inactive) in assay [6]. Also, the GI50 in [7] is 79.1 µM (inactive); in assay [8], > 100 µM (inactive); in [9], > 100 µM (inactive); in assay [10], 41.7 µM (inactive); in [11], > 100 µM (inactive); in assay [12], > 100 µM (inactive). For the same molecule, the GI50 in assay [13] was 53.1 µM (inactive); in [14], 56.4 µM (inactive); in assay [15], > 100 µM (inactive); in [16], > 100 µM (inactive); in assay [17] it was > 100 µM (inactive); in assay [18], 42.6 µM (inactive).
`COC/C=C\[C@]1(O)CCCC[C@@H]1CC(OC)OC`: the GI50 in assay [1] was > 100 µM (inactive); in assay [2] it was > 100 µM (inactive); in [3] it was > 100 µM (inactive); in assay [4] it was > 100 µM (inactive); in [5] it was above 100 µM; in [6] it was 43.5 µM (inactive). In addition, the GI50 in [7] is > 100 µM (inactive); in assay [8], > 100 µM (inactive); in assay [9] it was > 100 µM (inactive); in [10] it was 23.4 µM (inactive); in assay [11], > 100 µM (inactive); in assay [12], 97.7 µM (inactive). Besides, the GI50 in [13], in [14], in assay [15], in assay [16], in [17] and in [18] was > 100 µM (inactive) throughout.
Consider `CCCCCNc1nonc1N`, for which the GI50 is > 100 µM (inactive) in assay [1]; > 100 µM (inactive) in [2]; > 100 µM (inactive) in [3]; > 100 µM (inactive) in [4]; above 100 µM in assay [5]; > 100 µM (inactive) in assay [6]. The GI50 in assay [7], in [8], in [9], in [10], in assay [11] and in assay [12] was > 100 µM (inactive) throughout. Besides, the GI50 in [13], in assay [14], in assay [15], in assay [16], in [17] and in assay [18] was > 100 µM (inactive) throughout.
